Tests used:
Format in all cases: cell-based, human
Ad-N1IC-transduced HUVEC = assay: Notch-induced HUVEC budding on collagen gel
Method: HUVEC were transduced with either Ad-LacZ or Ad-N1IC at 40 MOI. FIGS. 23A-23C show the effect of inhibitors for receptor tyrosine kinases on Notch-induced HUVEC budding. FIG. 23A is a photograph of budding of Ad-N1IC-transduced HUVEC treated with PD166866, ZD1893 at 1 μm and SU5416 at 0.5 μm. […] FIGS. 23D-E show induction of Flt-1 expression in Ad-N1IC-transduced HUVEC. […] FIGS. 23F-G show promotion of Notch-induced HUVEC budding with P1GF stimulation. Ad-N1IC-transduced HUVEC were cultured on collagen gel with SFM, instead of complete medium, in the absence or presence of 50 ng/ml P1GF. […] FIGS. 23H-I show the effect of Flt-1 siRNA transfection on Flt1 expression. Ad-N1IC-transduced HUVEC were transfected with 200 pmol of either control (CT) or Flt-1 siRNA. […] Ad-N1IC-transduced HUVEC were transfected with either 100 or 200 pmol of siRNA and cultured on collagen gel for 2 days.
These Figures show inhibition of budding of Ad-N1IC-transduced HUVEC with treatment of matrix metallo-proteinase inhibitor GM6001. Either Ad-LacZ or Ad-N1IC-HUVEC at a MOI of 40 pfu/cell were cultured on collagen gel for 5 days in the absence or presence of GM6001 at 50 μm.
To test whether Notch signaling is down-stream of VEGF, we evaluated three distinct inhibitors for receptor tyrosine kinases, including VEGFR on N1IC-induced HUVEC budding, because three growth factors existed in complete medium (FIG. 23A-C). […] Thus, we examined whether activation of Notch signaling affected Flt1/VEGFR1 expression in HUVEC, because SU5416 inhibits both Flt1 and Flk1 kinase activity (15). […] P1GF increased the number of Ad-N1IC-HUVEC buds by 150%, compared to the absence of P1GF (FIG. 23F). Moreover, P1GF increased HUVEC buds containing multiple filopodia by 250% (FIG. 23G). […] Transfection with Flt1 siRNA inhibited budding of both Ad-N1IC- and Ad-VEGF-HUVEC to a similar extent (data not shown).

VEGFR-3 = assay: quantitative RT-PCR of Prox1-induced Notch-target gene VEGFR-3 in HUVEC; conditions: Ad-Prox1 infected HUVEC, 24 hours
Method: (§1) HUVEC were infected with adenoviruses encoding LacZ, Prox1, N1Ic or N4/int-3. Compound E(cE), Presenlin inhibitor that inhibits Notch signaling, was incubated for 24 hours on either Ad-LacZ or Ad-Prox1 infected HUVEC and total RNA isolated. Quantitative RT-PCR was performed for the endothelial Notch-target genes, VEGFR-3, EphrinB2, and Hey2. The Prox-1 mediated induction of the Notch target genes, ephrinB2, VEGFR-3 and Hey2 was inhibited by the addition of the Notch signaling inhibitor Compound E. Thus, Prox1 regulates the expression of ephrinB2, VEGFR-3 and Hey2 via Notch.
as §1, with “E, as shown in FIG. 48.” for “E.”

Hey2 = assay: quantitative RT-PCR of Prox1-induced Notch-target gene Hey2 in HUVEC; conditions: Ad-Prox1 infected HUVEC, 24 hours
Method: as §1
as §1, with “E, as shown in FIG. 48.” for “E.”

ephrinB2 = assay: quantitative RT-PCR of Prox1-induced Notch-target gene ephrinB2 in HUVEC; conditions: Ad-Prox1 infected HUVEC, 24 hours
Method: as §1
as §1, with “E, as shown in FIG. 48.” for “E.”

Notch3 = assay: quantitative RT-PCR of Prox1-induced Notch3 expression in HUVEC; conditions: Ad-Prox1 infected HUVEC, 24 hours
Method: (A) It was examined if extopic expression of Prox1 would alter the expression of Notch proteins or ligands. Twenty-four hours post adenoviral infection with either Ad-Prox1 or Ad-LacZ, HUVEC total RNA was isolated and quantitative RT-PCR for Notch1-4, Dll4 and Jagged1 performed. […] (B) Compound E (cE), Presenlin inhibitor that inhibits Notch signaling, was incubated for 24 hours on either Ad-LacZ or Ad-Prox1 infected HUVEC. Total RNA was isolated and quantitative PCR performed to determine Notch3 expression.
It was examined if ectopic expression of Prox1 would alter the expression of Notch proteins or ligands. […] Total RNA was isolated and quantitative RT-PCR performed to determine Notch3 expression. Prox1 induced Notch3 expression and this induction was inhibited by the addition of compound E.

HUVEC = HUVEC proliferation (CCK-8 kit); conditions: SFM with 1% FBS, 4 days (FIG. 26B)
Method: These Figures show proliferation of Ad-VEGF165-transduced HUVEC. HUVEC were transduced with Ad-VEGF165 at the indicated dosages. Ad-LacZ was also co-infected to make the same total amount of adenovirus at a MOI of 40 pfu/cell. HUVEC were suspended in SFM supplemented with 1% FBS and then plated at 1×10^4 cells/well in 24-well multi-wll plates with 0.4 ml of medium. After 4 days, cell numbers were determined using the CCK-8 kit and the results are indicated as the ratio of cell numbers determined to the number of control cells, which were transduced with Ad-GFP at a MOI of 40 pfu/cell. […] Ad-VEGF-transduced HUVEC were treated with SU5416 at the indicated dosages.
These Figures show the effect of alteration of Notch signaling on cell proliferation. The cells were transduced with the indicated adenoviruses. Ad-GFP was also co-infected to make the same total amount of adenovirus at a MOI of 60 pfu/cell. After 4 days, cell numbers were determined using the CCK-8 kit and results are indicated as the ratio of cell numbers determined to the number of control cells, which were transduced with AD-GFP at MOI of 60 pfu/cell. […] Transduced HUVEC were suspended in complete medium and then plated at 1×10^4 cells/well in 24-well multiwell plates with 0.4 ml of indicated medium (□: Ad-N1IC; ▪: Ad-N1ECDFc). […]

CBF1 promoter activity = assay: VEGF-induced Notch signaling, CBF1 promoter (CSL-luciferase) reporter activity in HUVEC; conditions: Ad-VEGF-transduced HUVEC
Method: To determine VEGF-induced Notch signaling, HUVEC which were infected with adenovirus were used. HUVEC plated 1-day prior in 6 well plates at 8.0×10^5 were infected with either Ad-LacZ as control or Ad-VEGF at indicated m.o.i. in the presence or absence of Ad-N1ECD/Fc. Two days after infection, infected HUVEC were re-seeded into 24-well plate at 1.5×10^5 cell in triplicate and cultured for 24 hours, and then transfected with 12.5 ng pRL-SV40 (Promega) and 137.5 ng pGA981-6 using Effectene transfection reagent (Qiagen). Cells were harvested either 1 or 2 days post-transfection and luciferase activity was determined by using the Dual-Luciferase® Reporter Assay System (Promega).
One can measure Notch signaling function by measuring transcriptional activity of CBF1 promoter, which is activated by binding of Notch-IC to CBF1. We measured CBF1 promoter activity in HUVEC which was infected with adenovirus encoding VEGF-165 at different MOI (FIG. 6). Induction of CBF1 promoter was clearly detected in Ad-VEGF-infected HUVEC, compared to Ad-LacZ-infected cells in the MOI dependent manner. […] Thus VEGF induced Notch signaling activity.

[1] = receptor tyrosine kinase inhibitors, 1 μM, complete medium

COc1cc(OC)cc(-c2cc3cnc(N)nc3nc2NC(=O)NC(C)(C)C)c1 [P13166866]
budding of Ad-N1IC-HUVEC (Ad-N1IC-transduced HUVEC; [1]): Neither P13166866 or ZD1893 affected budding

C[C@H](NC(=O)Cc1cc(F)cc(F)c1)C(=O)N[C@H]1N=C(c2ccccc2)c2ccccc2N(C)C1=O [Compound E]
Prox-1 mediated induction of VEGFR-3 (VEGFR-3): inhibited | Prox-1 mediated induction of Hey2 (Hey2): inhibited | Prox-1 mediated induction of ephrinB2 (ephrinB2): inhibited | Prox1 induction of Notch3 expression (Notch3): inhibited

CNC(=O)[C@H](Cc1c[nH]c2ccccc12)NC(=O)[C@@H](CC(=O)NO)CC(C)C [GM6001]
budding of Ad-N1IC-HUVEC (Ad-N1IC-transduced HUVEC; GM6001 at 50 μm, collagen gel, 5 days): clearly decreased | budding of Ad-N1IC-HUVEC (Ad-N1IC-transduced HUVEC; fibrin gel (data not shown)): clearly decreased

Cc1cc(C)c(/C=C2\C(=O)Nc3ccccc32)[nH]1 [SU5416, reference compound]
proliferation of Ad-VEGF-transduced HUVEC (HUVEC): inhibitory effect | budding of Ad-N1IC-HUVEC versus viability (Ad-N1IC-transduced HUVEC; lower concentrations, dose-dependency (FIG. 23C)): selectively inhibited | budding of Ad-N1IC-HUVEC (Ad-N1IC-transduced HUVEC; [1]): clearly inhibited | VEGF-induced CBF1 promoter / CSL-luciferase reporter activity (CBF1 promoter activity): decreased

B1: P1GF: placental growth factor, a selective ligand for Flt1 (protein, UniProt P49763 19-221, looked up)
Placenta growth factor: LPAVPPQQWALSAGNGSSEVEVVPFQEVWGRSYCRALERLVDVVSEYPSEVEHMFSPSCVSLLRCTGCCGDENLHCVPVETANVTMQLLKIRSGDRPSYVELTFSQHVRCECRHSPGRQSPDMPGDFRADAPSFLPPRRSLPMLFRMEWGCALTGSQSAVWPSSPVPEEIPRMHPGRNGKKQQRKPLREKMKPERCGDAVPRR
increase of HUVEC buds containing multiple filopodia (Ad-N1IC-transduced HUVEC; 50 ng/ml P1GF, SFM): 250% | increase of the number of Ad-N1IC-HUVEC buds (Ad-N1IC-transduced HUVEC; 50 ng/ml P1GF, SFM, compared to the absence of P1GF): 150%

Reference: patent US9475855B2, “Human Notch3 based fusion proteins as decoy inhibitors of Notch3 signaling” (THE TRUSTEES OF COLUMBIA UNIVERSITY IN THE CITY OF NEW YORK, priority 2008, dated 2016)
